The pIC50 is −log10 of the IC50, conventionally taken in molar units. Lower therefore signals a high IC50.

The results in this text go back to patent US20120004214A1 (priority 2009, published 2012).

pIC50: −log10 of the molar value.

This assay has as its target α7-subtype of nicotinic receptors (Rattus norvegicus, UniProt Q05941). In words: biochemical. The class given is binding.

α7-subtype of nicotinic receptors, sequence (Q05941 23-502): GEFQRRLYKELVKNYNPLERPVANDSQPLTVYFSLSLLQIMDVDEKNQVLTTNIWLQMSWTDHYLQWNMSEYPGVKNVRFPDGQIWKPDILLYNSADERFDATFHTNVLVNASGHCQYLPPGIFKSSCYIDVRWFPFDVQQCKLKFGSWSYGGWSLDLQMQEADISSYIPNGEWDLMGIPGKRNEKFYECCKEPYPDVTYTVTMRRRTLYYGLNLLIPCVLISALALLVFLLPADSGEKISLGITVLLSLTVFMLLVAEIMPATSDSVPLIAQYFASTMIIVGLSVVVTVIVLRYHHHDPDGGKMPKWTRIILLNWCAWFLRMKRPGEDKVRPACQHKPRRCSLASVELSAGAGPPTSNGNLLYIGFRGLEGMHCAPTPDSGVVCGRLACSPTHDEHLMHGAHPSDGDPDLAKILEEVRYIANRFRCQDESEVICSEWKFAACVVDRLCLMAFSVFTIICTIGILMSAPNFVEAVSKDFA

In turn, `[O-][N+]12CCC(CC1)N(c1ncc(-c3ccc4[nH]ccc4c3)cn1)CC2` [Compound 1, 4-[5-(1H-Indol-5-yl)-pyrimidin-2-yl]-1,4-diaza-bicyclo[3.2.2]nonane 1-oxide] showed a pIC50 greater than 7.40.
